Measured values taken from patent US20240285598A1 (priority 2021, published 2024).

Test system: SARS-CoV-2
Assay: Antiviral assay (viral RNA in culture supernatant by RT-qPCR)
Conditions: Severe acute respiratory syndrome coronavirus 2, 72 h, read-out: CC50 (Antiviral Data), MOI of 0.05, 72 h, 96-well plate, RT-qPCR of viral RNA

SMILES | CC50 [µM]
CC(C)Cc1cc(C[C@@H](C#N)NC(=O)[C@@H]2[C@@H]3[C@H](CN2C(=O)[C@H](NC(=O)C(F)(F)F)C(C)(C)C)C3(C)C)[nH]n1 | > 100
CC(C)O[C@@H]1C[C@@H](C(=O)NC(C#N)C[C@H]2CCNC2=O)N(C(=O)[C@@H](NC(=O)C(O)c2ccco2)C(C)(C)C)C1 (stereo partly drawn) | > 100
CC(C)(C)[C@@H](NC(=O)C(F)(F)F)C(=O)N1C[C@H]2[C@@H]([C@H]1C(=O)N[C@H](C#N)Cc1cc(CO)n[nH]1)C2(C)C | > 100
CC(C)(C)C(=O)N[C@H](C(=O)N1C[C@H]2[C@@H]([C@H]1C(=O)N[C@H](C#N)C[C@@H]1CCNC1=O)C2(C)C)C(C)(C)C | 1 to 10
CC(C)(C)[C@H](NC(=O)c1ccccc1)C(=O)N1C[C@H]2[C@@H]([C@H]1C(=O)N[C@H](C#N)C[C@@H]1CCNC1=O)C2(C)C [drawing 68] | 10.1 to 100
CC(C)(C)OC(=O)N[C@H](C(=O)N1Cc2ccccc2C[C@H]1C(=O)NC(C#N)CC1CCNC1=O)C(C)(C)C (stereo partly drawn) | > 100
CCCN(CCC)[C@@H]1C[C@@H](C(=O)NC(C#N)Cc2cc(OS(=O)(=O)c3ccc(C)cc3)n(S(=O)(=O)c3ccc(C)cc3)n2)N(C(=O)[C@@H](NC(=O)C(F)(F)F)C(C)(C)C)C1 (stereo partly drawn) | > 100
CC(C)(C)[C@H](NC(=O)C(F)(F)F)C(=O)N1C[C@H]2[C@@H]([C@H]1C(=O)NC(C#N)Cc1cn[nH]c1O)C2(C)C (stereo partly drawn) | > 100
CC(C)(C)[C@H](NC(=O)C(F)(F)F)C(=O)N1C[C@H](N2CCC(F)(F)CC2)C[C@H]1C(=O)NC(C#N)C[C@@H]1CCNC1=O (stereo partly drawn) | > 100
CCCN(CCC)[C@@H]1C[C@@H](C(=O)NC(C#N)C[C@@H]2CCNC2=O)N(C(=O)[C@@H](NC(=O)OCc2cccnc2)C(C)(C)C)C1 (stereo partly drawn) | > 100
CCCN(CCC)[C@@H]1C[C@@H](C(=O)NC(C#N)Cc2cn[nH]c2O)N(C(=O)[C@@H](NC(=O)C(F)(F)F)C(C)(C)C)C1 (stereo partly drawn) | > 100
CC(C)(C)[C@H](NC(=O)C(Cl)(Cl)Cl)C(=O)N1C[C@H]2[C@@H]([C@H]1C(=O)N[C@H](C#N)C[C@@H]1CCNC1=O)C2(C)C | > 100
CCCN(CCC)[C@@H]1C[C@@H](C(=O)N[C@H](C#N)Cc2cc(C)n[nH]2)N(C(=O)C(NC(=O)C(F)(F)F)C(C)(C)C)C1 (stereo partly drawn) | > 100
CC(C)(C)[C@H](NC(=O)OCc1ccccc1)C(=O)N1CCC(F)(F)C[C@H]1C(=O)NC(C#N)C[C@@H]1CCNC1=O (stereo partly drawn) | 10.1 to 100
Cc1cc(C[C@@H](C#N)NC(=O)[C@@H]2[C@@H]3[C@H](CN2C(=O)[C@H](NC(=O)C(F)(F)F)C(C)(C)C)C3(C)C)[nH]n1 | 10.1 to 100
CCCN(CCC)[C@@H]1C[C@@H](C(=O)NC(C#N)C[C@@H]2CCNC2=O)N(C(=O)[C@@H](NC(=O)OCc2ccccn2)C(C)(C)C)C1 (stereo partly drawn) | > 100
CCCN(CCC)[C@@H]1C[C@@H](C(=O)NC(C#N)C[C@@H]2CCNC2=O)N(C(=O)C(C)(C)NC(=O)C(F)(F)F)C1 (stereo partly drawn) | > 100
Cc1cc(C[C@@H](C#N)NC(=O)[C@@H]2[C@@H]3[C@H](CN2C(=O)[C@H](NC(=O)C2C4CO[C@@H]5OC[C@@H]2C5C4)C(C)(C)C)C3(C)C)[nH]n1 (stereo partly drawn) | > 100
CC(C)(NC(=O)C(F)(F)F)C(=O)N1C[C@H]2[C@@H]([C@H]1C(=O)N[C@H](C#N)C[C@@H]1CCNC1=O)C2(C)C | > 100
CC(C)(C)[C@H](NC(=O)C(Cl)(Cl)Cl)C(=O)N1C[C@H]2[C@@H]([C@H]1C(=O)N[C@H](C#N)C[C@@H]1CCCNC1=O)C2(C)C | > 100
CCCN(CCC)[C@@H]1C[C@@H](C(=O)NC(C#N)C[C@@H]2CCNC2=O)N(C(=O)C(C)(C)NC(=O)OCc2ccccc2)C1 (stereo partly drawn) | > 100
CC(C)O[C@@H]1C[C@@H](C(=O)NC(C#N)C[C@H]2CCNC2=O)N(C(=O)[C@@H](NC(=O)OCc2ccncc2)C(C)(C)C)C1 (stereo partly drawn) | > 100

SMILES | CC50 [µM]
CCCN(CCC)[C@@H]1C[C@@H](C(=O)NC(C#N)C[C@@H]2CCNC2=O)N(C(=O)[C@@H](NC(=O)NC(C)(C)C)C(C)(C)C)C1 (stereo partly drawn) | > 100
CC(C)(C)[C@H](NC(=O)OCc1ccncc1)C(=O)N1C[C@H]2[C@@H]([C@H]1C(=O)N[C@H](C#N)C[C@@H]1CCNC1=O)C2(C)C | 1 to 10
CC(C)O[C@@H]1C[C@@H](C(=O)NC(C#N)C[C@H]2CCNC2=O)N(C(=O)[C@@H](NC(=O)OCc2cccnc2)C(C)(C)C)C1 (stereo partly drawn) | > 100
CC(C)(C)OC(=O)N1C[C@H]2[C@@H]([C@H]1C(=O)N[C@H](C#N)C[C@@H]1CCNC1=O)C2(C)C | > 100
CCCN(CCC)[C@@H]1C[C@@H](C(=O)NC(C#N)C[C@@H]2CCNC2=O)N(C(=O)[C@@H](NC(=O)OCc2ccccc2)C(C)(C)C)C1 (stereo partly drawn) | 10.1 to 100
CC(C)O[C@@H]1C[C@@H](C(=O)NC(C#N)C[C@H]2CCNC2=O)N(C(=O)[C@@H](NC(=O)OC(C)(C)C)C(C)(C)C)C1 (stereo partly drawn) | 10.1 to 100
CCCN(CCC)[C@@H]1C[C@@H](C(=O)NC(C#N)C[C@@H]2CCNC2=O)N(C(=O)[C@@H](NC(=O)OCc2ccncc2)C(C)(C)C)C1 (stereo partly drawn) | > 100
CCCO[C@@H]1C[C@@H](C(=O)NC(C#N)C[C@@H]2CCNC2=O)N(C(=O)[C@@H](NC(=O)NC(C)(C)C)C(C)(C)C)C1 (stereo partly drawn) | > 100
CCCN(CCC)[C@@H]1C[C@@H](C(=O)NC(C#N)C[C@@H]2CCNC2=O)N(C(=O)[C@@H](NC(=O)C(F)(F)F)C(C)(C)C)C1 (stereo partly drawn) | > 100
CC(C)(C)C(NC(=O)OCc1ccncc1)C(=O)N1C[C@H]2[C@@H]([C@H]1C(=O)N[C@H](C#N)C[C@@H]1CCCNC1=O)C2(C)C (stereo partly drawn) | 1 to 10
CC(C)O[C@@H]1C[C@@H](C(=O)NC(C#N)C[C@H]2CCNC2=O)N(C(=O)[C@@H](NC(=O)OCc2ccccn2)C(C)(C)C)C1 (stereo partly drawn) | > 100
CCCO[C@@H]1C[C@@H](C(=O)NC(C#N)C[C@@H]2CCNC2=O)N(C(=O)[C@@H](NC(=O)OCc2ccccc2)C(C)(C)C)C1 (stereo partly drawn) | 1 to 10
CC(C)O[C@@H]1C[C@@H](C(=O)NC(C#N)C[C@H]2CCNC2=O)N(C(=O)[C@@H](NC(=O)C(F)(F)F)C(C)(C)C)C1 (stereo partly drawn) | 10.1 to 100
CC(C)(C)OC(=O)N[C@H](C(=O)N1CCN(C(=O)OC(C)(C)C)C[C@H]1C(=O)NC(C#N)CC1CCNC1=O)C(C)(C)C (stereo partly drawn) | > 100
CC(C)(C)[C@H](NC(=O)C(F)(F)F)C(=O)N1Cc2ccccc2CC1C(=O)N[C@@H](C#N)C[C@@H]1CCNC1=O (stereo partly drawn) | > 100
CC(C)(C)[C@H](NC(=O)C(F)(F)F)C(=O)N1CCN(Cc2ccccc2)CC1C(=O)N[C@@H](C#N)C[C@@H]1CCNC1=O (stereo partly drawn) | > 100
CCCO[C@@H]1C[C@@H](C(=O)NC(C#N)C[C@@H]2CCNC2=O)N(C(=O)[C@@H](NC(=O)OC(C)(C)C)C(C)(C)C)C1 (stereo partly drawn) | 10.1 to 100
CCCN(CCC)[C@@H]1C[C@@H](C(=O)NC(C#N)C[C@@H]2CCNC2=O)N(C(=O)[C@@H](NC(=O)OC(C)(C)C)C(C)(C)C)C1 (stereo partly drawn) | 10.1 to 100
CC(C)(C)NC(=O)N[C@H](C(=O)N1C[C@H]2[C@@H]([C@H]1C(=O)NC(C#N)C[C@@H]1CCNC1=O)C2(C)C)C(C)(C)C (stereo partly drawn) | > 100
CC(C)(C)OC(=O)N[C@H](C(=O)N1CCN(C(=O)OC(C)(C)C)CC1C(=O)N[C@@H](C#N)C[C@@H]1CCNC1=O)C(C)(C)C (stereo partly drawn) | > 100
CCCN(CCC)[C@@H]1C[C@@H](C(=O)NC(C#N)C[C@@H]2CCNC2=O)N(C(=O)[C@@H](NC(=O)C(Cl)(Cl)Cl)C(C)(C)C)C1 (stereo partly drawn) | > 100

Same assay, conditions: read-out: CC50 (Antiviral Data); MOI of 0.05, 72 h, 96-well plate, RT-qPCR of viral RNA

SMILES | CC50 [µM]
CC(C)(C)[C@H](NC(=O)C(F)(F)F)C(=O)N1C[C@H]2[C@@H]([C@H]1C(=O)N[C@H](C#N)C[C@@H]1CCNC1=O)C2(C)C [drawing 94] | > 100
CC(C)(C)[C@H](NC(=O)C(F)(F)F)C(=O)N1C[C@H]2[C@@H]([C@H]1C(=O)N[C@H](C#N)C[C@@H]1CCCNC1=O)C2(C)C [drawing 62] | 10.1 to 100
CC(C)(C)[C@H](NC(=O)c1ccccc1)C(=O)N1C[C@H]2[C@@H]([C@H]1C(=O)N[C@H](C#N)C[C@@H]1CCNC1=O)C2(C)C [drawing 101] | 10.1 to 100
CC(C)(C)[C@H](NC(=O)C(F)(F)F)C(=O)N1C[C@H]2[C@@H]([C@H]1C(=O)N[C@H](C#N)C[C@@H]1CCNC1=O)C2(C)C [drawing 61] | 10.1 to 100
CC(C)(C)[C@H](NC(=O)C(F)(F)F)C(=O)N1C[C@H]2[C@@H]([C@H]1C(=O)N[C@H](C#N)C[C@@H]1CCCNC1=O)C2(C)C [drawing 95] | 1 to 10
